Earlier results, collected in US8163703B2, “Hepatitis C therapies” (BioCryst Pharmaceuticals, Inc., priority 2005, dated 2012).

Test system: HCV
Conditions: ribavirin alone

**Q.** Which “patients in whom serum amino transferase levels are reduced to normal” value does the source give for NC(=O)c1ncn([C@@H]2O[C@H](CO)[C@@H](O)[C@H]2O)n1 [Ribavirin, 1-β-D-ribofuranosyl-1-1,2,4-triazole-3-carboxamide] here?
**A.** 40%
